In data set [1] the target is T1, Corticotropin releasing factor receptor (Rattus norvegicus, UniProt P47866+P35353). Put plainly: In vitro binding affinity against Corticotropin releasing factor receptor in rat cortical homogenates.
Data set [2] can be described thus: Partition coefficient (logP). In kind it is physicochemical. To be noted: octanol/water.
Data set [3] in a line: pKa value of the compound. In kind it is physicochemical.
Data set [4] has as its system Canis familiaris. Put plainly: Area under the curve at a dose of 1 mg/kg (oral). To be noted: dog, in vivo. Details: dose 1 mg/kg. The data set is classed as ADME, organism-based, Canis lupus familiaris.
Data set [5] deals with Canis familiaris. The experiment in a line: Area under the curve at i.v. dose of 0.2 mg/kg. The data set is classed as ADME, organism-based, Canis lupus familiaris. Details: dose 0.2 mg/kg, route intravenous. To be noted: dog, in vivo, iv.
Data set [6] can be described thus: Maximal plasma concentration at a dose of 1 mg/kg (oral). Set-up: route oral, dose 1 mg/kg. The data set is classed as ADME, organism-based, Canis lupus familiaris. To be noted: dog.
A short description of data set [7]: Oral bioavailability at a dose of 1 mg/kg in dogs. In kind it is ADME, organism-based, Canis lupus familiaris. To be noted: dog, in vivo.
Data set [8] in a line: (§1) Half life was evaluated in dog. In kind it is ADME, organism-based, Canis lupus familiaris. To be noted: in vivo.
The species named for data set [9] is Canis familiaris. The description is as §1. To be noted: in vivo. The data set is classed as ADME, organism-based, Canis lupus familiaris.
Data set [10] can be described thus: Clearance value at a dose of 0.2 mg/kg i.v. To be noted: dog, in vivo, iv, read-out: Cls (converted). The data set is classed as ADME, organism-based, Canis lupus familiaris. Set-up: dose 0.2 mg/kg, route intravenous.
Data set [11] in a line: Steady state volume of distribution at a dose of 0.2 mg/kg i.v. In kind it is ADME, organism-based, Canis lupus familiaris. Details: dose 0.2 mg/kg, route intravenous. To be noted: dog, in vivo, iv, read-out: Vss.
Data set [12] has as its target T1, Corticotropin releasing factor receptor. The experiment in a line: In vitro binding affinity against CRF receptor in rat cortical homogenates.

As to `CCc1nc2c(-c3ccc(C(F)(F)F)cc3Cl)nccc2n1C(CC)CC`, the Ki in data set [1] stood at 5.4 nM.
Take `CCc1nc2c(-c3ccc(Cl)cc3Cl)ccnc2n1C(CC)C1CC1` (stereo not drawn): the logP in data set [2] worked out at 5.56. For the same compound, the pKa in data set [3] was 3.86.
`CCc1nc2c(-c3ccc(Cl)cc3Cl)nccc2n1C(CC)C1CC1` (stereo not drawn) gave a logP in data set [2] of 4.1.
The compound `CCCC(C)n1c(CC)nc2c(-c3ccc(OC(F)(F)F)cc3Cl)nccc21` (stereo not drawn) yielded a logP in [2] of 4.62. In data set [3], this compound returned a pKa of 5.09. In data set [1], this compound registered an inhibition constant Ki of 2.8 nM.
`CCc1nc2c(-c3ccc(C(F)(F)F)cc3Cl)nccc2n1C(CC)C1CC1` (stereo not drawn) returned a Ki in [1] of 2.9 nM.
In turn, `CCc1nc2c(-c3ccc(Cl)cc3Cl)ncnc2n1C(C)C1CC1` (stereo not drawn) displayed a logP in data set [2] of 4.33. This compound also returned a pKa in data set [3] of less than 3.
In data set [2], `CCCC(C)n1c(CC)nc2c(-c3ccc(OC(F)F)cc3Cl)ccnc21` (stereo not drawn) returned a lipophilicity (logP) of 5.35.
For `CCc1nc2c(-c3ccc(Cl)cc3C)nccc2n1C(CC)C1CC1` (stereo not drawn), the Ki in [1] came to 14 nM.
Turning to `CCC[C@H](C)n1c(CC)nc2c(-c3ccc(OC(F)(F)F)cc3Cl)nccc21`, the AUC was determined as 0.569 µM·h in data set [4] and 0.341 µM·h in data set [5]. In addition, in [6], the peak concentration (Cmax) is 92.4 nM. In data set [7], this compound registered a bioavailability of 33%. For the same compound, the half-life in [8] is 15.1 h. Moreover, in data set [9], the T1/2 came out at 9.4 h. For the same compound, in data set [10], the clearance is 23.3 mL/min/kg. Moreover, the Vd in [11] was 19.1 L/kg. The compound further yielded a Ki in [1] of 2.3 nM.
Turning to `CCc1nc2c(-c3ccc(OC(F)(F)F)cc3Cl)nccc2n1C(C)CC` (stereo not drawn), in data set [12], the Ki stood at 7.8 nM.
As for `CCCC(C)n1c(CC)nc2c(-c3ccc(Cl)cc3C)nccc21` (stereo not drawn), the Ki in data set [1] came to 9.1 nM.
In the case of `CCc1nc2c(-c3ccc(Cl)cc3C(F)(F)F)nccc2n1C(CC)C1CC1` (stereo not drawn), the Ki in data set [1] is reported as 4.4 nM.
On to `CCCC(C)n1c(CC)nc2c(-c3ccc(OC(F)F)cc3C)nccc21` (stereo not drawn), for which the Ki in [1] amounted to 9 nM.
In data set [1], `CCCC(C)n1c(CC)nc2c(-c3ccc(C(F)(F)F)cc3Cl)nccc21` (stereo not drawn) came in with a Ki of 3.5 nM.
Same read-out and setting: for `CCCC(C)n1c(CC)nc2c(-c3ccc(Cl)cc3Cl)nccc21` (stereo not drawn) the value was 3 nM; for `CCC[C@@H](C)n1c(CC)nc2c(-c3ccc(OC(F)(F)F)cc3Cl)nccc21`, 1.9 nM.

What is called Ki is the dissociation constant of the complex between target and ligand, obtained from inhibition or displacement. Read a low Ki as tighter binding. As a reminder, the logP is a log measure of how a compound divides between an organic and an aqueous phase. Read a low logP as a more hydrophilic compound. For orientation: pKa means the pH at which an ionisable group is half protonated. Higher therefore signals a weaker acid or stronger base. The term AUC denotes concentration integrated over time. Read a high AUC as high exposure. What is called Cmax is the maximum level reached in the sampled fluid or tissue. By bioavailability is commonly meant dose-corrected exposure relative to a reference, in per cent. A word on the half-life: it is how long it takes for the measured level to halve. A lower half-life goes with fast loss.

The values are drawn from ChEMBL document CHEMBL1136412, “Imidazo[4,5-c]pyridines as corticotropin releasing factor receptor ligands” (Bioorg Med Chem Lett, 2003).
